From patent US4006144A, “10,11-Dihydro-dibenzo(b,f)thiepin derivatives” (Hoffmann-La Roche Inc., priority 1972, dated 1977)
Structures can show the parent of a compound that is named as a salt. Where two headings read alike, the source gives them in different places.

Experiments:
Assay type in all cases: in vivo
[1] = test system: rats; assay: Pole climbing test; conditions: for Quotient ED10 (Blocking of the unconditioned reaction)/ED50 (Blocking of the conditioned reaction): higher = greater selectivity of neuroleptic action
Procedure: This test gives information about behaviour reactions of rats. Rats are trained to avoid, by climbing up a vertical pole in the test chamber, an electrical impulse (unconditioned impulse) released via the wire-latticed floor some seconds after an acoustic signal (conditioned impulse).
The blocking of the conditioned reaction is determined by the parameter ED50 (mg/kg p.o.); the blocking of the unconditioned reaction is determined by the parameter ED10 (mg/kg p.o.).
The parameter ED50 (blocking of the conditioned reaction) gives a measure of the neuroleptic activity strength of the test substance. The quotient ED10 (blocking of the unconditioned reaction)/ED50 (blocking of the conditioned reaction) gives a measure of the quality of action of the test substance, in that with increasing quotient a greater selectivity of the neuroleptic action (slighter neurotoxic side-effects) is present.

[2] = test system: homovanillic acid (HVA); assay: Determination of homovanillic acid (turnover of dopamine in the basal ganglia); conditions: rats; for Increase of HVA: 2 hours, untreated rats fixed at 100%
Procedure: Rats are injected with the derivative to be tested 2 hours before they are killed.
Homovanillic acid is extracted from the supernatant of the brain homogenate into butyl acetate and later into an aqueous solution and oxidised with potassium ferricyanide to a fluorescent dimer. From the increased concentration of homovanillic acid (HVA) it can be concluded that the derivative under investigation acts like chlorpromazine, i.e. it increases the turnover of dopamine in the basal ganglia. The homovanillic acid titre in untreated rats is arbitrarily fixed at 100%.

[3] = test system: mice; assay: Rotating rod test; conditions: for ED50: Mus musculus, po, read-out: ED50 (dose which reduces the holding time to 50%)
Procedure: In the rotating rod test, the ability of mice to achieve a coordinated, motoric performance is tested. After the peroral administration of the test substance, mice are placed on a horizontal, slowly rotating rod and the time until the mice fall off the rod is measured.

[4] = test system: rats; assay: Cataleptic action in rats (homolateral extremities crossed position); conditions: rats, intraperitoneal
Procedure: (§1) The following products were investigated:
(§2) The amimals are considered to be cataleptic when the homolateral extremities remain for at least 10 seconds in the crossed position. The number of cataleptic animals is noted every 30 minutes for 6 hours.

[5] = as above; conditions: rat, in vivo, ip
Procedure: as §1, §2

SMILES | Quotient ED10 (Blocking of the unconditioned reaction)/ED50 (Blocking of the conditioned reaction) ([1]; p.o.) | Increase of HVA ([2]; 20 mg/kg p.o.) [%] | ED50 [3] [mg/kg] | ED50 ([1]; Rattus norvegicus, po, read-out: ED50 (Blocking of the conditioned reaction)) [mg/kg] | neuroleptic action and quality (selectivity) compared with chlorpromazine (in words) ([1]; p.o.) | Increase of HVA ([2]; 50 mg/kg p.o.) [%] | activity in HVA test compared with chlorpromazine (in words) [2] | ED50 ([3]; mice, peroral) [mg/kg] | action in rotating rod test (in words) ([3]; mice, peroral) | cataleptic action in comparison to chlorpromazine (in words) [4] | TD50 at 6 h [5] [mg/kg] | TD50 at 6 h ([5]; rats, intraperitoneal, noted every 30 minutes for 6 hours, read-out: ED50 (dose at which 50% of the animals show catalepsy)) [mg/kg]
CN(C)CCCN1c2ccccc2Sc2ccc(Cl)cc21 [Chlorpromazine, reference compound] | 3.5 | 321 | 5 |  |  |  |  |  |  |  |  | 
O=C1OCCN1CCN1CCN(C2Cc3cc(Cl)ccc3Sc3ccccc32)CC1 (stereo not shown) [Product A, 3-[2-[4-(2-chloro-10,11-dihydro-dibenzo[b,f]thiepin-10-yl)-1-piperazinyl]-ethyl]-2-oxozolidinone maleate] | 4.2 |  |  | 10 | strong neuroleptic action but also a quality (selectivity) of the neuroleptic action, both of which somewhat exceed that of chlorpromazine | 340 | almost equalizes that of chloropromazine | 7.9 | strong action | no cataleptic action or only a slight cataleptic action | > 100 | 
Cc1ccc2c(c1)CC(N1CCN(CCN3CCOC3=O)CC1)c1ccccc1S2.O=C(O)/C=C\C(=O)O (stereo not shown) [Product B, 3-[2-[4-(10,11-dihydro-2-methyl-dibenzo[b,f]thiepin-10-yl)-1-piperazinyl]-ethyl]-2-oxazolidinone maleate] |  |  |  |  |  | 255 | almost equalizes that of chloropromazine |  |  | no cataleptic action or only a slight cataleptic action |  | 70
